Reference: patent publication US20210239681A1, “COMPOSITIONS AND METHODS FOR […] OF […]-BASED IMMUNOTHERAPEUTICS” (ADVAXIS, INC., priority 2018, published 2021)

Legend:
Format in all cases: cell-based, human
10mer specific T cells = assay: Co-culture of THP-1 with 10mer specific T cells, cytokine production; parameters: IFNγ / IL-10 / IL-13 / IL-1β / IL-2 / IL-5 / IL-6 / TNF-α: unit not given here; conditions: for IFNγ production, with 10mer specific T cells: Listeria MOI of 10, optical density
Excerpt: (§1) Analysis Kits and Reagents: Analysis of cytokine concentrations in culture medium used the U-plex assay kits from Meso Scale Discovery. Expression of T cell receptors specific for E7 peptide bound to HLA-A*02:01 was detected using HLA-A*02:01/peptide tetramers from MBL International (Woburn, Mass.).
(§2) There were several possible explanations for the muted response with THP-1 cells infected with ADSX11: including failure of THP-1 cells to process the 10mer epitope from full length E7 protein, failure of the THP-1 cells to present the processed 10mer E7 peptide on HLA-A*02:01, insufficient incubation of the infected cells to allow synthesis of the E7 protein and accumulation of the MHC/peptide complex on the cell surface, and/or an inhibitory effect of gentamicin. A culture of T cells specific for the 9mer epitope was used as well as a new culture of 10mer specific T cells. The THP-1 cells were infected as before with XFL7 or ADXS11-001 at an MOI of 10. After treatment with gentamicin for one hour, the cells were cultured overnight in the absence of gentamicin. The next day the infected cells were collected and co-cultured with 9mer or 10mer specific T cells. These co-cultures were set up in standard X-VIVO 15 and X-VIVO 15 without gentamicin or phenol red. The co-cultures were incubated overnight before collecting medium for cytokine analysis. The medium was tested for IFNγ concentrations and optical density. […] In addition, the 10mer specific T cells recognized ADXS11-001 infected THP-1 when there was no gentamicin in the medium.
(§3) To further explore the importance of the overnight incubation of infected THP-1, THP-1 cells infected overnight were compared to THP-1 cells infected for 2 hours. T cells specific for 9mer and 10mer peptides were co-cultured with each of the THP-1 cells and with uninfected or peptide exposed THP-1. As before, medium was collected after an overnight co-culture and cytokines were measured.
(§4) Optimization of infection time required for E7 presentation. THP-1 infected and cultured overnight compared to THP-1 infected for 2 hours and used after gentamicin treatment. Both 9-mer specific T cells and 10-mer specific T cells used. Assays were performed using X-VIVO 15 medium without gentamicin. The following cytokines were measured: IFNγ, IL-1β, IL-2, IL-10, IL-12p70, IL-13, IL-5, IL-6, TNFα.

T cells = assay: Intracellular cytokine staining of T cells; conditions: Brefeldin A, FIG. 9
Description: (§5) To identify cytokines that can be used to measure potency of a Listeria-based therapeutic the following tests were performed. Intracellular cytokine staining was used to detect T cells specificity. THP-1 were incubated with peptide overnight, mixed with T cells from above and centrifuged. The collected cells were then co-cultured at 37° C. for 1 hour. Brefeldin A was then added and the cells were co-cultured for another 4 hours. Brefeldin A inhibits secretion and permits analysis by flow cytometry. Cell were then stained to identify dead cells and CD8+ cells. The cell were then fixed and stained for IFNγ (using fix and permeabilization buffer from eBioscience/Invitrogen).

THP-1 cells [1] = assay: Cytokine production by THP-1 in the absence of T cells; parameters: IL-6: unit not given here
Description: as §1
Infection of THP-1: The THP-1 cell line was infected with either ADXS11-001 or XFL7 by incubating 10^6 cells with dilutions of bacteria in a 1 mL volume of RPMI 1640 10% FBS. […] After incubation with gentamicin the cells were washed again and resuspended to the desired cell concentration.
T cell cytokine expression analysis. An initial experiment using THP-1 as antigen presenting cells was performed using a T cell culture containing 6% E7 (11-20) specific T cells based upon staining with HLA-A*02:01/peptide tetramer. THP-1 cells were infected as described using two different concentrations of bacteria and then co-cultured with the T cells. Controls included uninfected THP-1 cells and THP-1 cells incubated with (exposed to) either the 9mer or 10mer peptide for one hour. After an overnight co-culture, medium was collected for analysis of cytokines.
as §3
Titration studies with different multiplicity of infection (MOI). THP cells were infected for 2 hours with 3 different dilutions (MOI) of Listeria. Infected or uninfected THP cells were then cultured overnight for 24 hours before co-culturing the T cells. Cells were co-cultured overnight before cytokine analysis.

9mer specific T cells = assay: Co-culture of THP-1 with 9mer specific T cells, cytokine production; parameters: IFNγ / IL-10 / IL-12p70 / IL-13 / IL-1β / IL-2 / IL-5 / IL-6 / TNF-α: unit not given here; conditions: for IFNγ production, with 9mer specific T cells: Listeria MOI of 10, optical density
Excerpt: as §1, §2, §3, §4

THP-1 cells [2] = assay: Intracellular cytokine staining of THP-1 cells; conditions: FIGS. 3A-3C, FIG. 10
Description: as §5
Intracellular cytokine staining of THP-1 cells.

[3] = 10mer T cells + peptide exposed THP-1, overnight co-culture
[4] = Cytokine secretion by THP-1 after infection or + E7 peptide (No T cells), mean of triplicate
[5] = THP-1 + peptide, THP-1 cell alone
[6] = THP-1 + peptide, THP-1 cells only
[7] = THP-1 incubated with peptide, absence of T cells
[8] = 9mer T cells + peptide exposed THP-1, overnight co-culture

## YMLDLQPETT [10mer]
10mer specific T cells; 50 μg/mL gentamicin
  IFNγ production, with 10mer specific T cells: 0.226
10mer specific T cells; [3]
  IFNγ: 23328
  IL-1β: 3
  IL-2: 452
  IL-5: 1
  IL-6: 31
  IL-10: 12
  IL-12p70: <LLOD
  IL-13: 23
  TNF-α: 460
10mer specific T cells; Without gentamicin
  IFNγ production, with 10mer specific T cells: 0.200
T cells
  IFNγ in T cells after stimulation with peptide: higher levels of IFNγ
THP-1 cells [1]; 50 μg/mL gentamicin, Listeria MOI of 10, optical density
  IFNγ production, THP-1 alone: 0.058
THP-1 cells [1]; [4]
  IFNγ: 36.7 pg/mL
  IL-1β: 0.2 pg/mL
  IL-2: 4.6 pg/mL
  IL-4: 0.6 pg/mL
  IL-5: <LLOD
  IL-8: 11.8 pg/mL
  IL-10: 0.4 pg/mL
  IL-12p70: 0.3 pg/mL
  IL-13: <LLOD
  TNF-α: 15.5 pg/mL
THP-1 cells [1]; [5]
  IFNγ: 9
  IL-1β: 0
  IL-6: <LLOD
  TNF-α: <LLOD
THP-1 cells [1]; [6]
  IFNγ: 1
  IL-1β: 0
  IL-6: 6
  TNF-α: 104
THP-1 cells [1]; THP-1 alone, peptide exposed
  IFNγ: <LLOD
  IL-1β: <LLOD
  IL-2: <LLOD
  IL-5: <LLOD
  IL-6: <LLOD
  IL-10: <LLOD
  IL-12p70: <LLOD
  IL-13: <LLOD
  TNF-α: 0
THP-1 cells [1]; [7]
  IFNγ: <LLOD
  IL-1β: 0.1
  IL-2: <LLOD
  IL-4: <LLOD
  IL-6: <LLOD
  IL-8: 8.1
  IL-10: <LLOD
  IL-12p70: <LLOD
  IL-13: <LLOD
  TNF-α: <LLOD
9mer specific T cells; 50 μg/mL gentamicin
  IFNγ production, with 9mer specific T cells: 0.075
9mer specific T cells; [8]
  IFNγ: 112
  IL-1β: <LLOD
  IL-2: 3
  IL-5: <LLOD
  IL-6: 0
  IL-10: <LLOD
  IL-12p70: 0
  IL-13: <LLOD
  TNF-α: 2
9mer specific T cells; Without gentamicin
  IFNγ production, with 9mer specific T cells: 0.066
THP-1 cells [2]
  Basal IFNγ in THP-1 cells after stimulation with peptide: not detectable
